Reference: ChEMBL document CHEMBL1137830, “Synthesis and evaluation of tacrine-E2020 hybrids as acetylcholinesterase inhibitors for the treatment of Alzheimer's disease” (Bioorg Med Chem Lett, 2004)

Experiments:
Acetylcholinesterase = biological target: T1, Acetylcholinesterase (Rattus norvegicus, UniProt P37136)
T1 sequence (P37136 whole entry): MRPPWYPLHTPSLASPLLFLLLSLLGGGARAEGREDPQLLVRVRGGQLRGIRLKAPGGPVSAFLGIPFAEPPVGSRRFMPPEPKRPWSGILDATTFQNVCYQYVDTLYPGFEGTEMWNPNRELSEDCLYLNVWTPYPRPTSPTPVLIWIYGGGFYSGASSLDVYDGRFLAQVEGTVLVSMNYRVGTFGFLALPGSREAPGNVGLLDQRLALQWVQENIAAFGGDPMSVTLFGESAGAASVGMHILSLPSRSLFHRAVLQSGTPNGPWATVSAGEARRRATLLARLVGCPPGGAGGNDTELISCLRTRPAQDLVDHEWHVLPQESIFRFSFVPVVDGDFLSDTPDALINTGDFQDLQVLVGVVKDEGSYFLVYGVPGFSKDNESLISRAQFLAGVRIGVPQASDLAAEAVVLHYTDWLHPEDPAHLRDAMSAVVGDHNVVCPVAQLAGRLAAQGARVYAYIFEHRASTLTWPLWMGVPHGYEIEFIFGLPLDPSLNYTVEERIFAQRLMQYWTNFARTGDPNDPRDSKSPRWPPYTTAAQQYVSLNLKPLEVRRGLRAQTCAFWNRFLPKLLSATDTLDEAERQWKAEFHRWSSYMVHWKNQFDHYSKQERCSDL
Description: Inhibitory concentration against rat cortex Acetylcholinesterase

Butyrylcholinesterase = Butyrylcholinesterase (Rattus norvegicus, UniProt Q9JKC1)
Chain of Butyrylcholinesterase (Q9JKC1 whole entry): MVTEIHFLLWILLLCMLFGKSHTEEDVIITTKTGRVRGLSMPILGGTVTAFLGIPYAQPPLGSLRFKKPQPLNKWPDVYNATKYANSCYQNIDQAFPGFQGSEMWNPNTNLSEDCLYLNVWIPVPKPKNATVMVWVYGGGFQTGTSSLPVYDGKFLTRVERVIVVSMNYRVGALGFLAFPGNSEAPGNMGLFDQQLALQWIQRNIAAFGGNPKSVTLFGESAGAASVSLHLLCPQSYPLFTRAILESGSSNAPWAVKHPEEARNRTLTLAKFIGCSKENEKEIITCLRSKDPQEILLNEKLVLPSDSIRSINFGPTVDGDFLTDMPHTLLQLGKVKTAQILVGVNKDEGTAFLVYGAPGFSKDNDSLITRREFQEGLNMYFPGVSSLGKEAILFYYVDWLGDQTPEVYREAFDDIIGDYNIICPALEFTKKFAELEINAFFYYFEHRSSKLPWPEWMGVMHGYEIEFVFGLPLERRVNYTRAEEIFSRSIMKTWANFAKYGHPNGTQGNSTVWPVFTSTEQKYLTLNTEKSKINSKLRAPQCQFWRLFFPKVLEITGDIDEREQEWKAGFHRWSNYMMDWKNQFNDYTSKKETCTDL
Description: Inhibitory concentration against rat serum Butyrylcholinesterase

Structure (SMILES) | IC50 (Acetylcholinesterase) | IC50 (Butyrylcholinesterase)
COc1ccc(C(=O)NCC(=O)NCCC2CCN(Cc3ccccc3)CC2)cc1OC | 0.662 µM | 19.2 µM
O=C(CNc1c2c(nc3ccccc13)CCCC2)NCC1CCN(c2ccccc2)CC1 |  | 0.0124 µM
O=C(CNC1c2ccccc2-c2[nH]c3ccccc3c21)NCCC1CCN(Cc2ccccc2)CC1 (stereo not drawn) |  | 17.8 µM
O=C(CNC1CCc2ccccc21)NCCC1CCN(Cc2ccccc2)CC1 (stereo not drawn) | 0.23 µM | 6.92 µM
O=C(CNc1c2c(nc3ccccc13)CCCC2)NCCC1CCN(c2ccccc2)CC1 | 0.006 µM | 0.076 µM
